In PMC12752568, “Aloe‐Emodin Targeting FOXC2 Disrupts NETs Formation and EMT‐Driven Postoperative Peritoneal Adhesion Through TGF‐β1‐Smad2/3 Pathway” (Advanced Science, 2025):
Residue numbers refer to the chain shown, from its start.

Legend:
Assay type in all cases: binding
[1] = target: T1, Forkhead box protein C2 (FOXC2) (Homo sapiens, UniProt Q99958, N127A); assay: BLI (Octet RED […], Ni-NTA sensors); KD at fit limit
T1 construct: recombinant His-tagged FOXC2 mutant 2, purified from HEK293T cells
T1 sequence (Q99958 1-501 N127A): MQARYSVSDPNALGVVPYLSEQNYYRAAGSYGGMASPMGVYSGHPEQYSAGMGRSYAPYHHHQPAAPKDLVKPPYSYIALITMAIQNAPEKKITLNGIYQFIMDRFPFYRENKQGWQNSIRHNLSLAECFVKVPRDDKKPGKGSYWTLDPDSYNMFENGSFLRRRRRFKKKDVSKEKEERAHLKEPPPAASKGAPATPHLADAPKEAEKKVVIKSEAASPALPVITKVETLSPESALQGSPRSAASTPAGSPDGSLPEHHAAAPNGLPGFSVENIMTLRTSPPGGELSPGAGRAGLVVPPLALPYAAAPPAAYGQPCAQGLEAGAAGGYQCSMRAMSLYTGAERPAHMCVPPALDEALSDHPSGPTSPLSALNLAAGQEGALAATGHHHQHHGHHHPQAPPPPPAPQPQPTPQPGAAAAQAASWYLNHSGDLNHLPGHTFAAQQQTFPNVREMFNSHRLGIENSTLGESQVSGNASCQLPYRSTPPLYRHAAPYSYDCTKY

[2] = target: T2, Forkhead box protein C2 (FOXC2) (Homo sapiens, UniProt Q99958, S125A); assay: BLI (Octet RED […], Ni-NTA sensors)
T2 construct: recombinant His-tagged FOXC2 mutant 1, purified from HEK293T cells
T2 sequence (Q99958 1-501 S125A): T1 sequence (Q99958 1-501 N127A) with S125A, A127N

[3] = target: T3, Forkhead box protein C2 (FOXC2) (Homo sapiens, UniProt Q99958); assay: BLI (Octet RED […], Ni-NTA sensors); supported by AE-bead competitive pull-down from PMCs
T3 construct: recombinant His-tagged FOXC2 (WT), purified from HEK293T cells
T3 sequence (Q99958 1-501): T1 sequence (Q99958 1-501 N127A) with A127N

SMILES: O=C1c2cccc(O)c2C(=O)c2c(O)cc(CO)cc21 [AE, 1,8‐dihydroxy‐3‐hydroxymethyl‐anthraquinone]
- Kd [1]: < 1 pM
- Kd [2]: 13.3 µM
- Kd [3]: 8.25 µM
